Patent publication US20050176764A1, “Medicine for treating cancer” (KOWA CO., LTD, priority 2002, published 2005)
Counter-ions that a name gives are not always drawn.

What was measured:
Assay type in all cases: cell-based
HCT-15 (colon cancer) = assay: Cancer cell growth inhibition, WST-1 colorimetry; settings: Homo sapiens, HCT-15, 48 hours
Method: (§1) Cultured human cancer cells were added to a 96-well plate. On the following day, a solution of each of the compounds prepared in Examples 13, 23, 29, 36, and 114 (in five concentrations resulting from 10-fold stepwise dilution: 10^−4, 10^−5, 10^−6, 10^−7, or 10^−8 M) was added, followed by incubation for 48 hours. Subsequently, % growth of the cells was measured through colorimetry by use of a WST-1 (Dojindo) reagent for measurement of cell count. From the measurement data, % growth was calculated by use of the following equation, and 50% growth inhibitory concentration (GI50) was calculated from the dose-response curve of each compound: % growth={[(OD as measured after 48 hours from addition of compound)−(OD at time zero)]/[(OD of control as measured after 48 hours)−(OD at time zero)]}×100.

MCF-7 (breast cancer) = assay: Cancer cell growth inhibition, WST-1 colorimetry; settings: Homo sapiens, MCF7, MCF-7, 48 hours
Method: as §1

MKN-45 (stomach cancer) = assay: Cancer cell growth inhibition, WST-1 colorimetry; settings: Homo sapiens, MKN-45, 48 hours
Method: as §1

MKN-74 (stomach cancer) = assay: Cancer cell growth inhibition, WST-1 colorimetry; settings: Homo sapiens, MKN-74, 48 hours
Method: as §1

[1] = system: cultured human cancer cells; assay: Cancer cell growth inhibition, WST-1 colorimetry, overall statement; settings: result in words, 48 hours
Method: as §1

[2] = system: Human umbilical venous endothelial cells (HUVECs); assay: Gene expression analysis (GeneChip HuGene FL array) in TNFα-stimulated HUVECs; settings: Example 10 at 1 μM, TSA at 10 μM
Method: Human umbilical venous endothelial cells (HUVECs) were placed in 10 cm dishes (3×10^5 cells/dish). Two days thereafter, Trichostatin A (TSA, produced by Upstate) dissolved in dimethyl sulfoxide (DMSO) and the compound prepared in Example 10 dissolved in DMSO were individually added to a final concentrations of 10 μM and 1 μM, respectively. Each sample was stimulated with TNFα (final concentration: 10 ng/mL, Genzyme-Techne). Four hours later, total RNA was extracted with ISOGEN (Nippon Gene Co., Ltd.). The subsequent procedure was performed in accordance with the manufacturer's protocol (Affymetrix). From the thus obtained total RNA, mRNA was purified by a conventional method. cDNA was synthesized from the purified mRNA, and then biotin-labeled cRNA was synthesized by in vitro transcription. The cRNA was purified and subjected to heat treatment for fragmentation. The fragmented cRNA was used in gene expression analysis.
Method of gene expression analysis: The thus-prepared fragmented cRNA was injected to a HuGene human FL array (Affymetrix), and allowed to hybridize for 16 hours at 45° C. After washing, streptavidin labeled with phycoerythrin, and biotinylated anti-streptavidin antibody were added to each sample in order to cause reaction. Gene expression information was read by use of a dedicated scanner for GeneChip™ (Hewlett Packard). The thus-obtained information was analyzed with GeneChip Software (Affymetrix) for comparison in terms of level of expression.

[3] = out of 52 genes increased twice or more by TNFα

COc1cc(OC)cc(N(Cc2ccnc(-c3cc(OC)c(OC)c(OC)c3)c2)C2CCN(Cc3ccnc(-c4cc(OC)c(OC)c(OC)c4)c3)CC2)c1 [Example 23, 4-[N-(3,5-dimethoxyphenyl)-N-[[2-(3,4,5-trimethoxyphenyl)pyridin-4-yl]methyl]amino]-1-[[2-(3,4,5-trimethoxyphenyl)pyridin-4-yl]methyl]piperidine Trihydrochloride]
GI50 (HCT-15 (colon cancer)): 900 nM | GI50 (MCF-7 (breast cancer)): 600 nM | GI50 (MKN-45 (stomach cancer)): 4000 nM | GI50 (MKN-74 (stomach cancer)): 700 nM | growth inhibitory effect on cultured human cancer cells [1]: strong growth inhibitory effect

CC(/C=C/C(=O)NO)=C\[C@@H](C)C(=O)c1ccc(N(C)C)cc1 [TSA, Trichostatin A, reference compound]
mRNA expression level of ABC transporter B2 ([2]; TNFα 10 ng/mL, 4 h): 66 | mRNA expression level of B94 ([2]; TNFα 10 ng/mL, 4 h): 924 | mRNA expression level of BCL3 ([2]; TNFα 10 ng/mL, 4 h): 198 | mRNA expression level of Cox-2 ([2]; TNFα 10 ng/mL, 4 h): 30 | mRNA expression level of EphrinA1 ([2]; TNFα 10 ng/mL, 4 h): 113 | mRNA expression level of Gro1 ([2]; TNFα 10 ng/mL, 4 h): 855 | mRNA expression level of I kappa B alpha ([2]; TNFα 10 ng/mL, 4 h): 1363 | mRNA expression level of IAP homolog B ([2]; TNFα 10 ng/mL, 4 h): 99 | mRNA expression level of ICAM-1 ([2]; TNFα 10 ng/mL, 4 h): 2303 | mRNA expression level of IFNGR2 ([2]; TNFα 10 ng/mL, 4 h): 209 | mRNA expression level of IL-7R ([2]; TNFα 10 ng/mL, 4 h): 44 | mRNA expression level of M-Ras-regulated GEF ([2]; TNFα 10 ng/mL, 4 h): 39 | mRNA expression level of MCP-1 ([2]; TNFα 10 ng/mL, 4 h): 46 | mRNA expression level of Na/K-ATPase beta-1 ([2]; TNFα 10 ng/mL, 4 h): 148 | mRNA expression level of Nef associated factor 1 ([2]; TNFα 10 ng/mL, 4 h): 396 | mRNA expression level of OB-cadherin-2 ([2]; TNFα 10 ng/mL, 4 h): 62 | mRNA expression level of RDC1 ([2]; TNFα 10 ng/mL, 4 h): 21 | mRNA expression level of Spliceosomal Protein Sap 49 ([2]; TNFα 10 ng/mL, 4 h): 79 | mRNA expression level of TRAF1 ([2]; TNFα 10 ng/mL, 4 h): 262 | mRNA expression level of VCAM-1 ([2]; TNFα 10 ng/mL, 4 h): 96 | mRNA expression level of beta-galactoside alpha-2; 6-sialyltransferase ([2]; TNFα 10 ng/mL, 4 h): 19 | mRNA expression level of caspase-like apoptosis regulatory protein 2 (clarp) ([2]; TNFα 10 ng/mL, 4 h): 50 | mRNA expression level of cytoplasmic antiproteinase 2 (CAP2) ([2]; TNFα 10 ng/mL, 4 h): 37 | mRNA expression level of ets-2 ([2]; TNFα 10 ng/mL, 4 h): 38 | mRNA expression level of exodus-1 ([2]; TNFα 10 ng/mL, 4 h): 1206 | mRNA expression level of fractalkine ([2]; TNFα 10 ng/mL, 4 h): 38 | mRNA expression level of junB ([2]; TNFα 10 ng/mL, 4 h): 123 | mRNA expression level of lymphotoxin beta ([2]; TNFα 10 ng/mL, 4 h): −40 | mRNA expression level of metalloproteinase stromelysin-2 ([2]; TNFα 10 ng/mL, 4 h): 69 | mRNA expression level of ninjurin1 ([2]; TNFα 10 ng/mL, 4 h): 150 | mRNA expression level of p50-NF-kappa B homolog ([2]; TNFα 10 ng/mL, 4 h): 57 | number of genes whose expression was enhanced [2, 3]: 6 genes | number of genes whose expression was inhibited [2, 3]: 25 genes

COc1cc(-c2cc(CN3CCC(N(Cc4ccnc(-c5cc(OC)c(OC)c(OC)c5)c4)c4ccc5c(c4)OCO5)CC3)ccn2)cc(OC)c1OC [Example 29, 4-[N-(3,4-methylenedioxyphenyl)-N-[[2-(3,4,5-trimethoxyphenyl)pyridin-4-yl]methyl]amino]-1-[[2-(3,4,5-trimethoxyphenyl)pyridin-4-yl]methyl] piperidine Trihydrochloride]
GI50 (HCT-15 (colon cancer)): 800 nM | GI50 (MCF-7 (breast cancer)): 700 nM | GI50 (MKN-45 (stomach cancer)): 3000 nM | GI50 (MKN-74 (stomach cancer)): 400 nM | growth inhibitory effect on cultured human cancer cells [1]: strong growth inhibitory effect

COc1ccc(N(Cc2cncc(-c3cc(OC)c(OC)c(OC)c3)c2)C2CCN(Cc3ccnc(-c4cc(OC)c(OC)c(OC)c4)c3)CC2)cc1 [Example 13, 4-[N-(4-methoxyphenyl)-N-[[5-(3,4,5-trimethoxyphenyl)pyridin-3-yl]methyl]amino]-1-[[2-(3,4,5-trimethoxyphenyl)pyridin-4-yl]methyl]piperidine Trihydrochloride]
GI50 (HCT-15 (colon cancer)): 800 nM | GI50 (MCF-7 (breast cancer)): 700 nM | GI50 (MKN-45 (stomach cancer)): 3000 nM | GI50 (MKN-74 (stomach cancer)): 700 nM | growth inhibitory effect on cultured human cancer cells [1]: strong growth inhibitory effect

COc1cc(-c2cncc(CN(c3ccc(SC)cc3)C3CCN(Cc4ccnc(-c5cc(OC)c(OC)c(OC)c5)c4)CC3)c2)cc(OC)c1OC [Example 114]
GI50 (HCT-15 (colon cancer)): 800 nM | GI50 (MCF-7 (breast cancer)): 600 nM | GI50 (MKN-45 (stomach cancer)): 2000 nM | GI50 (MKN-74 (stomach cancer)): 200 nM | growth inhibitory effect on cultured human cancer cells [1]: strong growth inhibitory effect

COc1cc(-c2cc(CN3CCC(N(C)Cc4ccnc(-c5cc(OC)c(OC)c(OC)c5)c4)CC3)ccn2)cc(OC)c1OC [Example 36, 4-[N-methyl-N-[[2-(3,4,5-trimethoxyphenyl)pyridin-4-yl]methyl]amino]-1-[[2-(3,4,5-trimethoxyphenyl)pyridin-4-yl]methyl]piperidine Tetrahydrochloride]
GI50 (HCT-15 (colon cancer)): 1000 nM | GI50 (MCF-7 (breast cancer)): 700 nM | GI50 (MKN-45 (stomach cancer)): 2000 nM | GI50 (MKN-74 (stomach cancer)): 600 nM | growth inhibitory effect on cultured human cancer cells [1]: strong growth inhibitory effect
